Data published in ChEMBL document CHEMBL1154324, “Activity of mangosteen xanthones and teleocidin a-2 in death receptor expression enhancement and tumor necrosis factor related apoptosis-inducing ligand assays” (J Nat Prod, 2010).

Target: Tumor necrosis factor receptor superfamily member 10B (Homo sapiens) (UniProt O14763)
Experiment: Induction of DR5 promoter activity in SacI gene expressing human DLD1 cells at 10 to 30 uM after 24 hrs by luciferase reporter gene assay relative to control
Assay type: cell-based
Details: DLD-1

Tumor necrosis factor receptor superfamily member 10B (Homo sapiens), sequence (O14763 whole entry): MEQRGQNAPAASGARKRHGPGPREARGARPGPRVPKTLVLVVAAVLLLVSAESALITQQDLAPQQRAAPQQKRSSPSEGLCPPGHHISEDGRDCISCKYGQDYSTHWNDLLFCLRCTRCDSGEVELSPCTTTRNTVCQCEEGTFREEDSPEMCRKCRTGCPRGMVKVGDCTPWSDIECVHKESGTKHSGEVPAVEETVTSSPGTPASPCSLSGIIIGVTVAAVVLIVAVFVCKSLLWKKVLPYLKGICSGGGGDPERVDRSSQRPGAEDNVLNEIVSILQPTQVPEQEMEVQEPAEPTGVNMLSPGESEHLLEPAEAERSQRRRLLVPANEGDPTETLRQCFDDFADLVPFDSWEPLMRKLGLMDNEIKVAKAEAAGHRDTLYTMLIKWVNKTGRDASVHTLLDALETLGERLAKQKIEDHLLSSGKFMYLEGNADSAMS

SMILES | fold change (FC)
COc1c(O)cc2oc3cc4c(c(O)c3c(=O)c2c1CC=C(C)C)C=CC(C)(C)O4 | 4
CC(C)=CCc1c(O)c(CC=C(C)C)c2oc3c(O)ccc(O)c3c(=O)c2c1O | 3.1
COc1c(O)cc2oc3cc(O)c(CC=C(C)C)c(O)c3c(=O)c2c1CC=C(C)C | 3.8
